From patent US8846739B2, “TGR5 agonists” (Exelixis Patent Company LLC, priority 2009, dated 2014)

Key:
h-TGR5 = target: T1, h-TGR5 (Homo sapiens, UniProt Q8TDU6); test: TGR5 cAMP Assay using Cisbio cAMP Dynamic 2 htrf assay kit; assay type: cell-based; conditions: hTGR5CRE-luc HEK 293 cells
T1 sequence (Q8TDU6 1-330): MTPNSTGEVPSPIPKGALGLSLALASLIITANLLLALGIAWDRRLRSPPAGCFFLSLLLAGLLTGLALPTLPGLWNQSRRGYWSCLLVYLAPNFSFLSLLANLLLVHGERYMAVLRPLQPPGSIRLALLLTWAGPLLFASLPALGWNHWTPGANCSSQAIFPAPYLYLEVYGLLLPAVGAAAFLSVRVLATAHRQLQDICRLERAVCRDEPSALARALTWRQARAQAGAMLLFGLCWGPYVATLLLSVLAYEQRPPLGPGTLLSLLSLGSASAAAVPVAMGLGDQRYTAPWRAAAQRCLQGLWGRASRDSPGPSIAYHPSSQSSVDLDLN
Experimental: Compounds were diluted in DPBS with 5% DMSO (8-point serial dilution by half logs) in a 96-well plate and 1 μL was transferred to a 384-well assay plate in quadruplicate. The d2-cAMP and anti-cAMP Ab-cryptate stock solution were prepared as per the instructions in the Cisbio™ (Bedford, Mass.) kit. Cells (hTGR5CRE-luc HEK 293 and mTGR5CRE-luc HEK 293) were harvested using cell dissociation buffer and resuspended in DPBS. Cells were adjusted to 0.44×10^6 cells/ml followed by addition of IBMX to a final concentration of 0.5 mM. The cells were then mixed with d2-cAMP solution (7.1 mL cells+100 ul d2-cAMP) and 4000 cells (9 μL) were transferred to each well of the 384-well assay plate. Cells without d2-cAMP were added to eight wells as a negative control. The plate was covered and incubated at room temp for 30 min. Then 10 μL of Ab-cryptate solution was added to each well of the assay plate and incubated for 1 hr. The plate was read on an EnVision™ plate reader (Perkin-Elmer, Waltham, Mass.) and the DeltaF value was calculated as per the instructions in the Cisbio™ kit.
(§1) In the following tables, ECso values determined according to the TGR5 cAMP Assay are noted (cAMP); EC50 values determined according to the TGR5/CRE-Luciferiase Assay are noted (CRE-Luc).

human TGR5 (h-TGR5) = target: T2, human TGR5 (h-TGR5) (Homo sapiens, UniProt Q8TDU6); test: TGR5/CRE-Luciferase Assay; assay type: cell-based; conditions: HEK 293 hTGR5/CRE-Luc cells, 6 hours incubation, read-out: CRE-Luc Agonist (EC50)
T2 sequence (Q8TDU6 1-330): T1 sequence (Q8TDU6 1-330)
Experimental: HEK 293 cells stably expressing human TGR5 (h-TGR5) or mouse TGR5 (m-TGR5) were generated from HEK 293 CRE-Luciferase cells. The day before the assay, HEK 293 hTGR5/CRE-Luc cells were plated in DMEM in a 384 well assay plate at a density of 25 k cells/45 μL per well and grown for 18-20 hours. Compounds were serially diluted in DMEM containing 5% DMSO and 5 µL of compound or media alone was transferred to each well and plates were incubated for 6 hours. Following incubation, 30 μL of lysis/luciferase buffer was added to each well. The luciferase activity was then measured on the EnVision™ plate reader and the dose response data was analyzed using ActivityBase.
as §1

EC50 (h-TGR5)	EC50 (human TGR5 (h-TGR5))	SMILES
< 100 nM	< 100 nM	COc1cc(C(C)(C)c2cnc(SCc3c(F)cc(S(=O)(=O)N(CCC[N+](C)(C)C)CC(N)=O)cc3F)n2-c2ccc(F)cc2)ccc1Cl [Compound 12h, 3-(N-(2-amino-2-oxoethyl)-4-((5-(2-(4-chloro-3-methoxyphenyl)propan-2-yl)-1-(4-fluorophenyl)-1H-imidazol-2-ylthio)methyl)-3,5-difluorophenylsulfonamido)-N,N,N-trimethylpropan-1-aminium 2,2,2-trifluoroacetate]
100 to 1000 nM	100 to 1000 nM	CC(C)(c1ccc(Cl)c(O)c1)c1cnc(SCc2c(F)cc(S(=O)(=O)NCCC[N+](C)(C)C)cc2F)n1-c1ccc(F)cc1 [Compound 13a, 3-(4-((5-(2-(4-chloro-3-hydroxyphenyl)propan-2-yl)-1-(4-fluorophenyl)-1H-imidazol-2-ylthio)methyl)-3,5-difluorophenylsulfonamido)-N,N,N-trimethylpropan-1-aminium 2,2,2-trifluoroacetate]
< 100 nM	< 100 nM	COc1cc(C(C)(C)c2cnc(SCc3c(F)cc(S(=O)(=O)N(CCC[N+](C)(C)C)[C@H](C(=O)O)[C@@H](C)O)cc3Cl)n2-c2ccc(F)cc2)ccc1Cl [Compound 14ac, 3-([(1S,2R)-1-carboxy-2-hydroxypropyl]{[3-chloro-4-({[5-{1-[4-chloro-3-(methyloxy)phenyl]-1-methylethyl}-1-(4-fluorophenyl)-1H-imidazol-2-yl]thio}methyl)-5-fluorophenyl]sulfonyl}amino)-N,N,N-trimethylpropan-1-aminium]
< 100 nM	< 100 nM	COc1cc(C(C)(C)c2cnc(SCc3c(F)cc(S(=O)(=O)N(CCCCC[N+](C)(C)C)[C@H](C)C(=O)O)cc3Cl)n2-c2ccc(F)cc2)ccc1Cl [Compound 14ad, 5-([(1R)-1-carboxyethyl]{[3-chloro-4-({[5-{1-[4-chloro-3-(methyloxy)phenyl]-1-methylethyl}-1-(4-fluorophenyl)-1H-imidazol-2-yl]thio}methyl)-5-fluorophenyl]sulfonyl}amino)-N,N,N-trimethylpentan-1-aminium]
100 to 1000 nM	< 100 nM	COc1ccc(CN(CCC[N+](C)(C)C)S(=O)(=O)c2cc(F)c(CSc3ncc(C(C)(C)c4ccc(Cl)c(OC)c4)n3-c3ccc(F)cc3)c(F)c2)cc1 [Compound 14ae, 3-({[4-({[5-{1-[4-chloro-3-(methyloxy)phenyl]-1-methylethyl}-1-(4-fluorophenyl)-1H-imidazol-2-yl]thio}methyl)-3,5-difluorophenyl]sulfonyl}{[4-(methyloxy)phenyl]methyl}amino)-N,N,N-trimethylpropan-1-aminium]
100 to 1000 nM	< 100 nM	COc1cc(C(C)(C)c2cnc(SCc3c(F)cc(S(=O)(=O)N(CCC[N+](C)(C)C)[C@@H](CCC(=O)O)C(=O)O)cc3F)n2-c2ccc(F)cc2)ccc1Cl [Compound 14ag, (S)-3-(4-((5-(2-(4-chloro-3-methoxyphenyl)propan-2-yl)-1-(4-fluorophenyl)-1H-imidazol-2-ylthio)methyl)-N-(1,3-dicarboxypropyl)-3,5-difluorophenylsulfonamido)-N,N,N-trimethylpropan-1-aminium]
< 100 nM	< 100 nM	COc1cc(C(C)(C)c2cnc(SCc3c(F)cc(S(=O)(=O)N(CCCC[N+](C)(C)C)C(C)(C)C(=O)O)cc3F)n2-c2ccc(F)cc2)ccc1Cl [Compound 14ai, 4-(N-(2-carboxypropan-2-yl)-4-((5-(2-(4-chloro-3-methoxyphenyl)propan-2-yl)-1-(4-fluorophenyl)-1H-imidazol-2-ylthio)methyl)-3,5-difluorophenylsulfonamido)-N,N,N-trimethylbutan-1-aminium 2,2,2-trifluoroacetate]
< 100 nM	< 100 nM	COc1cc(C(C)(C)c2cnc(SCc3c(F)cc(S(=O)(=O)N(CCC[N+](C)(C)C)[C@@H](C)C(=O)O)cc3F)n2-c2ccc(F)cc2)ccc1Cl [Compound 14b, (S)-3-(N-(1-carboxyethyl)-4-((5-(2-(4-chloro-3-methoxyphenyl)propan-2-yl)-1-(4-fluorophenyl)-1H-imidazol-2-ylthio)methyl)-3,5-difluorophenylsulfonamido)-N,N,N-trimethylpropan-1-aminium 2,2,2-trifluoroacetate]
< 100 nM	< 100 nM	COc1cc(C(C)(C)c2cnc(SCc3c(F)cc(S(=O)(=O)N(CCC[N+](C)(C)C)[C@H](C)C(=O)O)cc3Cl)n2-c2ccc(F)cc2)cc(F)c1F [Compound 14c, (R)-3-(N-(1-carboxyethyl)-3-chloro-4-((5-(2-(3,4-difluoro-5-methoxyphenyl)propan-2-yl)-1-(4-fluorophenyl)-1H-imidazol-2-ylthio)methyl)-5-fluorophenylsulfonamido)-N,N,N-trimethylpropan-1-aminium 2,2,2-trifluoroacetate]

Continued, compound first:

SMILES	EC50 (h-TGR5)	EC50 (human TGR5 (h-TGR5))
COC(=O)[C@@H](C)N(CCC[N+](C)(C)C)S(=O)(=O)c1cc(F)c(CSc2ncc(C(C)(C)c3ccc(Cl)c(OC)c3)n2-c2ccc(F)cc2)c(F)c1 [Compound 14, (R)-3-(4-((5-(2-(4-chloro-3-methoxyphenyl)propan-2-yl)-1-(4-fluorophenyl)-1H-imidazol-2-ylthio)methyl)-3,5-difluoro-N-(1-methoxy-1-oxopropan-2-yl)phenylsulfonamido)-N,N,N-trimethylpropan-1-aminium 2,2,2-trifluoroacetate]	< 100 nM	< 100 nM
COc1cc(C(C)(C)c2cnc(SCc3c(F)cc(S(=O)(=O)N(CCC[N+](C)(C)C)[C@H](C)C(=O)O)cc3F)n2-c2ccc(F)cc2)ccc1Cl [Compound 14a, (R)-3-(N-(1-carboxyethyl)-4-((5-(2-(4-chloro-3-methoxyphenyl)propan-2-yl)-1-(4-fluorophenyl)-1H-imidazol-2-ylthio)methyl)-3,5-difluorophenylsulfonamido)-N,N,N-trimethylpropan-1-aminium 2,2,2-trifluoroacetate]	< 100 nM	< 100 nM
COc1cc(C(C)(C)c2cnc(SCc3c(F)cc(S(=O)(=O)N(CCCC[N+](C)(C)C)[C@H](C)C(=O)O)cc3Cl)n2-c2ccc(F)cc2)ccc1Cl [Compound 14aa, 4-([(1R)-1-carboxyethyl]{[3-chloro-4-({[5-{1-[4-chloro-3-(methyloxy)phenyl]-1-methylethyl}-1-(4-fluorophenyl)-1H-imidazol-2-yl]thio}methyl)-5-fluorophenyl]sulfonyl}amino)-N,N,N-trimethylbutan-1-aminium]	< 100 nM	< 100 nM
CC[C@H](C(=O)O)N(CCC[N+](C)(C)C)S(=O)(=O)c1cc(F)c(CSc2ncc(C(C)(C)c3ccc(Cl)c(OC)c3)n2-c2ccc(F)cc2)c(Cl)c1 [Compound 14ab, 3-([(1R)-1-carboxypropyl]{[3-chloro-4-({[5-{1-[4-chloro-3-(methyloxy)phenyl]-1-methylethyl}-1-(4-fluorophenyl)-1H-imidazol-2-yl]thio}methyl)-5-fluorophenyl]sulfonyl}amino)-N,N,N-trimethylpropan-1-aminium]	< 100 nM	< 100 nM
COC(=O)C(C)(C)N(CCC[N+](C)(C)C)S(=O)(=O)c1cc(F)c(CSc2ncc(C(C)(C)c3ccc(Cl)c(OC)c3)n2-c2ccc(F)cc2)c(F)c1 [Compound 14af, 3-({[4-({[5-{1-[4-chloro-3-(methyloxy)phenyl]-1-methylethyl}-1-(4-fluorophenyl)-1H-imidazol-2-yl]thio}methyl)-3,5-difluorophenyl]sulfonyl}[1,1-dlmethyl-2-(methyloxy)-2-oxoethyl]amino)-N,N,N-trimethylpropan-1-aminium]	< 100 nM	< 100 nM
COc1cc(C(C)(C)c2cnc(SCc3c(F)cc(S(=O)(=O)N(CCC[N+](C)(C)C)[C@H](C)CC(=O)O)cc3Cl)n2-c2ccc(F)cc2)ccc1Cl [Compound 14aj, (R)-3-(N-(1-carboxypropan-2-yl)-3-chloro-4-((5-(2-(4-chloro-3-methoxyphenyl)-propan-2-yl)-1-(4-fluorophenyl)-1H-imidazol-2-ythio)methyl)-5-fluorophenyl-sulfonamido)-N,N,N-trimethylpropan-1-aminium 2,2,2-trifluoroacetate]	< 100 nM	< 100 nM
